The values below come from US12258308B2, “Benzene derivative” (ONO PHARMACEUTICAL CO., LTD., priority 2018, dated 2025).

One test has as its system rat Schwann cells. Briefly: In vitro test using Schwann cells (Schwann cell differentiation promotion, MAG immunostaining). The class given is cell-based. Particulars: 3 days, MAG-positive area/cell nuclei; for activity at 0.3 µM / activity at 3 µM: Rattus norvegicus, 72 h; for activity at 0.3 µM: read-out: Schwann cell differentiation promotion rate (% of vehicle) 0.3 μmol/L; for activity at 3 µM: read-out: Schwann cell differentiation promotion rate (% of vehicle) 3 μmol/L. The protocol:
Biological Experiment Example 1: In Vitro Test Using Schwann Cells
• (1) Preparation of rat Schwann cells
A dorsal root ganglion (abbreviated as “DRG”, hereinafter) was excised from a newborn rat aged 0 to 2 days in a clean bench and was collected in DMEM. After the collection, the tube was centrifuged at 400 g, at room temperature for 3 minutes, then a supernatant was discarded, and a 0.25% collagenase solution was added. There resultant solution was incubated at 37° C. for 30 minutes to disperse and separate the excised DRG, and was then centrifuged at room temperature at 400 g for 3 minutes, then a supernatant was discarded, and then 0.25% Trypsin/EDTA and DNaseI were added. After the incubation at 37° C. for 30 minutes, trypsin was inactivated with DMEM supplemented with 10% FBS (10% FBS-DMEM), and centrifugation was carried out at room temperature at 400 g for 3 minutes. A supernatant was discarded, then 10% FBS-DMEM was added to the residue to prepare a cell suspension, and then the cell suspension was allowed to pass through a filter (diameter: 70 μm). The number of cells in the cell suspension which passed through the filter was counted to prepare a solution having a concentration of 2.0×10^5 cells/mL, and the suspension was seeded in a poly-D-lysine-coated 96-well black-clear plate in an amount of 100 μL/well and was then statically cultured in a CO2 incubator under the conditions including 5% of CO2, 95% of air and 37° C.
The culture medium in the cell culture plate was removed by suction using an aspirator, and then DMEM supplemented with 1% dialyzed FBS and 100 μmol/L dibutyryl cyclic AMP was added. Subsequently, a solution of a compound of the present invention dissolved in DMSO was added, and the resultant solution was statically cultured in a C02 incubator under the conditions including 5% of C02, 95% of air and a temperature of 37° C. The final concentration of the compound of the present invention in each well in the cell culture plate was adjusted to 0.1, 0.3, 1 or 3 μmol/L.
Three days after the treatment with the compound, formaldehyde was added to each well in the cell culture plate, and the cell culture plate was allowed to stand at room temperature for 30 minutes or longer. A supernatant was discarded, and then a 0.3% tritonX-100 solution was added to each well, and then the cell culture plate was allowed to stand at room temperature for 20 minutes or longer. A supernatant was discarded, then a 5-μg/mL anti-myeline-associated glycoprotein antibody (anti-MAG antibody) solution was added to each well, and then the cell culture plate was allowed to stand at room temperature for 60 minutes or longer or at 4° C. (acceptable range: 1 to 9° C.) overnight. Each well was washed with a 0.1% tritonX-100 solution three times, then a 10-μg/mL Alexa fluor 488 anti-mouse IgG solution was added to each well, and then the cell culture plate was allowed to stand at room temperature for 60 or longer or at 4° C. overnight. Each well was washed with a 0.1% tritonX-100 solution four times, and then a 1-μg/mL Hoechst33342 solution was added to each well to stain nuclei.
The Mag-positive area and the number of cell nuclei in a fluorescent image were calculated. With respect to each of the MAG-positive area and the number of cell nuclei, the sum total of values obtained in 5 viewing fields/well was determined. The values were employed as a value for the MAG-positive area and a value for the number of cell nuclei, respectively, in each well. Subsequently, a value determined by dividing the value for the MAG-positive area in each well by the value for the number of cell nuclei in the well (i.e., MAG/cell nuclei numerical value) was calculated. The Schwann cell differentiation promotion rate was determined for each of the vehicles in accordance with the following formula. […]

Test [1] relates to streptozotocin-induced rat model. Briefly: Test using streptozotocin-induced rat model (nociceptive threshold, von Frey). The class given is in vivo. Particulars: for Nociceptive threshold improve rate (%) 7 days after withdrawal of administration: 0.3 mg/kg oral once per day day 14 to 28, 35 days after STZ; for Nociceptive threshold improve rate (%) After initial single administration: 14 days after STZ, 2 hours after administration; for Nociceptive threshold improve rate (%) 7 days after start of administration: 21 days after STZ; for Nociceptive threshold improve rate (%) 14 days after start of administration: 28 days after STZ. The protocol:
Biological Experiment Example 2: Test Using Streptozotocin-Induced Rat Model
In order to evaluate the therapeutic effect of each of the compounds of the present invention on diabetic peripheral neuropathy, an in vivo test using a streptozotocin model was carried out.
A model was produced by intravenously administering streptozotocin (abbreviated as “STZ”, hereinafter) one time at a dose amount of 55 mg/kg to a rat.
(2) Measurement of Nociceptive Threshold
The rat was placed in a clear acryl measurement cage once or more times for 10 minutes or longer until the administration of STZ started. In this manner, the rat was acclimated to the measurement environment. Eight von Frey filaments respectively having weights of 0.4, 0.6, 1, 2, 4, 6, 8 and 15 g were applied vertically to a hindpaw of the rat from under a metallic mesh floor. When a quick escape or flinching reaction was observed, it was determined that a positive reaction occurred (i.e., “response was observed”). Each of the compounds of the present invention was administered orally once per day in a period from day 14 to day 28 after the administration of STZ, wherein the dose amount of each of the compounds was 0.03, 0.3 or 3 mg/kg. A nociceptive threshold was measured 2 hours after the administration of each of the compounds of the present invention at the timings of before the administration of STZ, 14 days after the administration of STZ (i.e., the day of the start of the administration of each of the compounds of the present invention), 21 days after the administration of STZ (i.e., 7 days after the start of the administration of the compound), 28 days after the administration of STZ (i.e., 14 days after the start of the administration of the compound), and 35 days after the administration of STZ (i.e., 7 days after the withdrawal of the administration of the compound).
The nociceptive threshold was measured by the up-down method in accordance with the method of Chaplan et. al. (J Neurosci Methods. 1994; 53:55-63). The rate of improvement in the nociceptive threshold was calculated in accordance with the following formula. Nociceptive threshold improve rate (%)=(nociceptive threshold on each of the number of days elapsed after administration of STZ−B)/(A−B)×100 [Math 2] • A: Nociceptive threshold before administration of STZ • B: Nociceptive threshold on 14 days elapsed after administration of STZ (Results)
The results of the nociceptive thresholds and the nociceptive threshold improve rates obtained when each of the compounds of the present invention was administered at a dose amount of 0.3 mg/kg are shown in the FIGURE and Table 2, respectively. With respect to all of the compounds, a potent pain relief effect against peripheral neuropathy was observed. With respect to the compound of Example 11, for example, the improvement in the nociceptive threshold was observed from 7 days after the start of the administration of the compound, and this effect lasted even 7 days after the withdrawal of the administration.

For `O=C(O)CCc1ccccc1OCC[C@@H](O)/C=C/c1cccc2c1CCN2S(=O)(=O)c1ccccc1` [Example 13(15), 3-[2-[(E,3R)-5-[1-(Benzenesulfonyl)-2,3-dihydroindol-4-yl]-3-hydroxypent-4-enoxy]phenyl]propanoic Acid], the activity at 0.3 µM with rat Schwann cells (compound 0.3 μmol/L) was found to be 219%. Moreover, the activity at 3 µM with rat Schwann cells (compound 3 μmol/L) worked out at 326%. The “Nociceptive threshold improve rate (%) 7 days after withdrawal of administration” value in test [1] worked out at 7.1 ± 9.51%. Further, in test [1] (0.3 mg/kg oral once per day), the “Nociceptive threshold improve rate (%) After initial single administration” value was −15.4 ± 14.26%, the “Nociceptive threshold improve rate (%) 7 days after start of administration” value was 15.9 ± 7.17% and the “Nociceptive threshold improve rate (%) 14 days after start of administration” value was 8.5 ± 11.50%.
As for `O=C(O)CCc1ccccc1OCC[C@@H](O)/C=C/c1ccc2c(c1)CN(S(=O)(=O)c1ccccc1)C2` [Example 13(16), 3-[2-[(E,3R)-5-[2-(Benzenesulfonyl)-1,3-dihydroisoindol-5-yl]-3-hydroxypent-4-enoxy]phenyl]Propanoic Acid], the activity at 0.3 µM in the test with rat Schwann cells (compound 0.3 μmol/L) was 170%. Also, in the test with rat Schwann cells (compound 3 μmol/L), the activity at 3 µM was 377%. Besides, the “Nociceptive threshold improve rate (%) 7 days after withdrawal of administration” value in test [1] is reported as −7.8 ± 14.90%. Also, in test [1] (0.3 mg/kg oral once per day), the “Nociceptive threshold improve rate (%) After initial single administration” value was −6.0 ± 3.87%, the “Nociceptive threshold improve rate (%) 7 days after start of administration” value amounted to 25.8 ± 5.28% and the “Nociceptive threshold improve rate (%) 14 days after start of administration” value turned out to be 29.6 ± 8.19%.
As for `O=C(O)CCc1ccccc1OCC[C@@H](O)CCc1cccc(C(O)Cc2ccccc2)c1` (stereo in doubt) [Example 36, 3-[2-[(3S)-3-Hydroxy-5-[3-[(1R)-1-hydroxy-2-phenylethyl]phenyl]pentoxy]phenyl]propanoic acid], the activity at 0.3 µM in the test on rat Schwann cells (compound 0.3 μmol/L) worked out at 126%. Moreover, the activity at 3 µM with rat Schwann cells (compound 3 μmol/L) was 732%. In test [1], the “Nociceptive threshold improve rate (%) 7 days after withdrawal of administration” value stood at 57.4 ± 10.74%. Further, in test [1] (0.3 mg/kg oral once per day), the “Nociceptive threshold improve rate (%) After initial single administration” value was found to be 3.6 ± 7.07%, the “Nociceptive threshold improve rate (%) 7 days after start of administration” value stood at 57.1 ± 13.78% and the “Nociceptive threshold improve rate (%) 14 days after start of administration” value came to 64.2 ± 13.02%.
As to `O=C(O)CCc1ccccc1OCCC/C=C/c1cccc(NS(=O)(=O)c2ccccc2)c1` [Example 84, 3-[2-[(E)-5-[3-(Benzenesulfonamido)phenyl]pent-4-enoxy]phenyl]propanoic acid], the activity at 0.3 µM with rat Schwann cells (compound 0.3 μmol/L) amounted to 162%. The activity at 3 µM in the test on rat Schwann cells (compound 3 μmol/L) was determined as 445%. Moreover, the “Nociceptive threshold improve rate (%) 7 days after withdrawal of administration” value in test [1] is listed as 58.8 ± 12.51%. Also, in test [1] (0.3 mg/kg oral once per day), the “Nociceptive threshold improve rate (%) After initial single administration” value worked out at 5.7 ± 2.48%, the “Nociceptive threshold improve rate (%) 7 days after start of administration” value stood at 35.0 ± 16.24% and the “Nociceptive threshold improve rate (%) 14 days after start of administration” value is on record as 49.9 ± 11.50%.
For the compound `O=C(O)CCc1ccccc1OCC[C@@H](O)/C=C/c1cccc(NS(=O)(=O)c2ccccc2)c1` [Example 11, 3-[2-[(E,3R)-5-[3-(Benzenesulfonamido)phenyl]-3-hydroxypent-4-enoxy]phenyl]propanoic acid], the activity at 0.3 µM in the test on rat Schwann cells (compound 0.3 μmol/L) was determined as 114%. Further, the activity at 3 µM in the test on rat Schwann cells (compound 3 μmol/L) was 248%. Besides, the “Nociceptive threshold improve rate (%) 7 days after withdrawal of administration” value in test [1] worked out at 41.1 ± 13.71%. Also, in test [1] (0.3 mg/kg oral once per day, STZ rat), the “Pain relief effect against peripheral neuropathy” value is on record as “a sustained pain relief effect was confirmed”. In test [1] (0.3 mg/kg oral once per day), the “Nociceptive threshold improve rate (%) After initial single administration” value is listed as −14.6 ± 6.37%, the “Nociceptive threshold improve rate (%) 7 days after start of administration” value is given as 26.6 ± 9.30% and the “Nociceptive threshold improve rate (%) 14 days after start of administration” value is 27.1 ± 8.39%.
For `O=C(O)CCc1ccccc1OCC[C@@H](O)CCc1cccc(C(O)Cc2ccccc2)c1` (stereo in doubt) [Example 37, 3-[2-[(3S)-3-Hydroxy-5-[3-[(1S)-1-hydroxy-2-phenylethyl]phenyl]pentoxy]phenyl]propanoic acid], in the test on rat Schwann cells (compound 0.3 μmol/L), the activity at 0.3 µM is 171%. Besides, the activity at 3 µM in the test with rat Schwann cells (compound 3 μmol/L) was found to be 915%. Also, the “Nociceptive threshold improve rate (%) 7 days after withdrawal of administration” value in test [1] came to 58.7 ± 19.84%. In test [1] (0.3 mg/kg oral once per day), the “Nociceptive threshold improve rate (%) After initial single administration” value is given as −11.9 ± 10.78%, the “Nociceptive threshold improve rate (%) 7 days after start of administration” value is 61.3 ± 16.58% and the “Nociceptive threshold improve rate (%) 14 days after start of administration” value worked out at 78.9 ± 9.85%.
Consider `O=C(O)CCc1ccccc1OCC[C@@H](O)/C=C/c1cccc(NS(=O)(=O)Cc2ccccc2)c1` [Example 74(15), 3-[2-[(E,3R)-5-[3-(Benzilsulfonylamino)phenyl]-3-hydroxypent-4-enoxy]phenyl]propanoic acid], for which the “Schwann cell differentiation promotion rate (% of vehicle) 0.3 μmol/L” value in the test on rat Schwann cells (compound 0.3 μmol/L) is 204.5 % of vehicle. Also, in the test on rat Schwann cells (compound 3 μmol/L), the “Schwann cell differentiation promotion rate (% of vehicle) 3 μmol/L” value is reported as 428.1 % of vehicle.
In the case of `O=C(O)CCc1ccccc1OCC[C@@H](O)/C=C/c1cccc(NC(=O)c2ccccc2)c1` [Example 12(1), 3-[2-[(E,3R)-5-(3-Benzamidophenyl)-3-hydroxypent-4-enoxy]phenyl]propanoic acid], the activity at 0.3 µM in the test with rat Schwann cells (compound 0.3 μmol/L) turned out to be 120%. For the same compound, the activity at 3 µM in the test on rat Schwann cells (compound 3 μmol/L) was determined as 274%. Moreover, the “Nociceptive threshold improve rate (%) 7 days after withdrawal of administration” value in test [1] amounted to 9.1 ± 13.37%. Moreover, in test [1] (0.3 mg/kg oral once per day), the “Nociceptive threshold improve rate (%) After initial single administration” value was 6.2 ± 5.72%, the “Nociceptive threshold improve rate (%) 7 days after start of administration” value amounted to 17.4 ± 17.19% and the “Nociceptive threshold improve rate (%) 14 days after start of administration” value worked out at 44.6 ± 11.54%.
Consider `CC(C)OC(=O)CCc1ccccc1OCC[C@@H](O)/C=C/c1cccc(NS(=O)(=O)c2ccccc2)c1` [Example 10, Propan-2-yl 3-[2-[(E,3R)-5-[3-(benzenesulfonamido)phenyl]-3-hydroxypent-4-enoxy]phenyl]propanoate], for which the activity at 0.3 µM in the test with rat Schwann cells (compound 0.3 μmol/L) is 86.2%. Moreover, in the test with rat Schwann cells (compound 3 μmol/L), the activity at 3 µM amounted to 593%.
